# Patent US8309577B2, “Quinuclidine compounds as α-7 nicotinic acetylcholine receptor ligands” (Bristol-Myers Squibb Company, priority 2008, dated 2012)
# Biological target: T1, α-7 nicotinic acetylcholine receptor channel expressed in HEK 293 cells (Rattus norvegicus, UniProt Q05941)
# T1 construct: expressed in transfected cells
# Experiment: Ca2+-sensitive fluorescence-based FLIPR assay, α7 nicotinic ACh receptor channel function (agonist)
# Format: cell-based
# Details: FLIPR α7 (EC50, nM), Table 1; HEK 293 cells, agonist Ca2+ flux
# Summary of the method: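 Potency and efficacy derived from kinetic FLIPR Ca²⁺-flux fluorescence, recorded 3 min after compound addition in Hanks buffer following a 10 s baseline.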
# T1 sequence (Q05941 23-502): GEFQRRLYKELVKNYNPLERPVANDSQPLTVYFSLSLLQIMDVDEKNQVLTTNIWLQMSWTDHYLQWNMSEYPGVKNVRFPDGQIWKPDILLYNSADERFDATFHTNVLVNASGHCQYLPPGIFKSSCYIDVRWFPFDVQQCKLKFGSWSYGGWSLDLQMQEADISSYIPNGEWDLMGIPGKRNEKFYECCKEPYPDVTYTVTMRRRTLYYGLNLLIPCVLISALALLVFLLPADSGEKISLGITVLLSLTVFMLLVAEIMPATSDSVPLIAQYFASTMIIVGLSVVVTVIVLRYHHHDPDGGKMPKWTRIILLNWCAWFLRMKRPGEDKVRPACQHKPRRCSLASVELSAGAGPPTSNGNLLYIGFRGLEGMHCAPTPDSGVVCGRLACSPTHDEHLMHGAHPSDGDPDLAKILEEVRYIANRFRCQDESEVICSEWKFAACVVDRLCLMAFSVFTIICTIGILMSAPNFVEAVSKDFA
row,Structure (SMILES),EC50 [nM]
1,FC(F)(F)c1ccc2nc(NC3=NCC4(CN5CCC4CC5)O3)nn2c1 (stereo not shown) [Example 83],240
2,CC(=O)Nc1ccc2nc(NC3=NCC4(CN5CCC4CC5)O3)sc2c1 (stereo not shown) [Example 90],130
3,Cc1cc(Cl)c2nc(NC3=NCC4(CN5CCC4CC5)O3)sc2c1 (stereo not shown) [Example 103],280
4,CC(C)(C)c1csc(NC2=NCC3(CN4CCC3CC4)O2)n1 (stereo not shown) [Example 110],450
5,COc1ccn2nc(NC3=NC[C@@]4(CN5CCC4CC5)O3)nc2c1 [Example 125],17
6,c1ccc2nc(NC3=NC[C@@]4(CN5CCC4CC5)O3)ccc2c1 [Example 139],16
7,Fc1cccc2[nH]nc(NC3=NC[C@@]4(CN5CCC4CC5)O3)c12 [Example 158],135
8,c1ccc2c(NC3=NC[C@@]4(CN5CCC4CC5)O3)n[nH]c2c1 [Example 165],13
9,COc1ccc(-c2ccnc(NC3=NC[C@@]4(CN5CCC4CC5)O3)n2)cc1 [Example 166],11
10,Cc1cc(Cl)cc2sc(NC3=NC[C@@]4(CN5CCC4CC5)O3)nc12 [Example 174],245
11,COc1nc(NC2=NC[C@@]3(CN4CCC3CC4)O2)ncc1Br [Example 178],17

# Same assay, conditions: FLIPR α7 activity rating (EC50, nM), Table 1; HEK 293 cells, agonist Ca2+ flux
row,Structure (SMILES),EC50 [nM]
1,FC(F)(F)c1ccc2nc(NC3=NCC4(CN5CCC4CC5)O3)nn2c1 (stereo not shown) [Example 83],100 to 1000
2,c1cnc2ccc(NC3=NCC4(CN5CCC4CC5)O3)cc2c1 (stereo not shown) [Example 85],1000 to 100000
3,O=C1Cc2cc(NC3=NCC4(CN5CCC4CC5)O3)ccc2N1 (stereo not shown) [Example 86],1000 to 100000
4,c1ccn2nc(NC3=NCC4(CN5CCC4CC5)O3)nc2c1 (stereo not shown) [Example 87],< 100
5,c1ccc(-c2csc(NC3=NCC4(CN5CCC4CC5)O3)n2)nc1 (stereo not shown) [Example 88],100 to 1000
6,Cc1cc(C)c2nc(NC3=NCC4(CN5CCC4CC5)O3)sc2c1 (stereo not shown) [Example 89],< 100
7,CC(=O)Nc1ccc2nc(NC3=NCC4(CN5CCC4CC5)O3)sc2c1 (stereo not shown) [Example 90],100 to 1000
8,CCc1ccc2nc(NC3=NCC4(CN5CCC4CC5)O3)sc2c1 (stereo not shown) [Example 91],100 to 1000
9,Cc1cnc(NC2=NCC3(CN4CCC3CC4)O2)s1 (stereo not shown) [Example 92],< 100
10,Cc1ccn2nc(NC3=NCC4(CN5CCC4CC5)O3)nc2c1 (stereo not shown) [Example 94],< 100
11,Cn1c(-c2ccccc2)cnc1NC1=NCC2(CN3CCC2CC3)O1 (stereo not shown) [Example 96],1000 to 100000
12,Cc1cccn2nc(NC3=NCC4(CN5CCC4CC5)O3)nc12 (stereo not shown) [Example 97],100 to 1000
13,Cc1nc(NC2=NCC3(CN4CCC3CC4)O2)sc1C(=O)N(C)C (stereo not shown) [Example 98],1000 to 100000
14,Cc1ccc(C)c2sc(NC3=NCC4(CN5CCC4CC5)O3)nc12 (stereo not shown) [Example 102],< 100
15,Cc1cc(Cl)c2nc(NC3=NCC4(CN5CCC4CC5)O3)sc2c1 (stereo not shown) [Example 103],100 to 1000
16,FC(F)Oc1ccc2nc(NC3=NCC4(CN5CCC4CC5)O3)sc2c1 (stereo not shown) [Example 104],100 to 1000
17,c1ccc(Cc2cnc(NC3=NCC4(CN5CCC4CC5)O3)s2)cc1 (stereo not shown) [Example 105],100 to 1000
18,Brc1cnc(NC2=NCC3(CN4CCC3CC4)O2)cn1 (stereo not shown) [Example 107],100 to 1000
19,Cc1csc(NC2=NCC3(CN4CCC3CC4)O2)n1 (stereo not shown) [Example 109],100 to 1000
20,CC(C)(C)c1csc(NC2=NCC3(CN4CCC3CC4)O2)n1 (stereo not shown) [Example 110],100 to 1000
21,COc1ccc(C)c2nc(NC3=NCC4(CN5CCC4CC5)O3)sc12 (stereo not shown) [Example 112],< 100
22,c1ccc2c(NC3=NCC4(CN5CCC4CC5)O3)n[nH]c2c1 (stereo not shown) [Example 113],< 100

row,Structure (SMILES),EC50 [nM]
1,COc1ccn2nc(NC3=NC[C@@]4(CN5CCC4CC5)O3)nc2c1 [Example 125],< 100
2,Clc1cncc(NC2=NC[C@@]3(CN4CCC3CC4)O2)n1 [Example 127],1000 to 100000
3,COc1ccc(-c2nc(NC3=NC[C@@]4(CN5CCC4CC5)O3)sc2C)cc1 [Example 129],100 to 1000
4,COc1nc(Br)cnc1NC1=NC[C@@]2(CN3CCC2CC3)O1 [Example 130],100 to 1000
5,Clc1cccc2[nH]nc(NC3=NC[C@@]4(CN5CCC4CC5)O3)c12 [Example 132],100 to 1000
6,Brc1ccc2c(NC3=NC[C@@]4(CN5CCC4CC5)O3)n[nH]c2c1 [Example 133],< 100
7,Clc1ccc2c(NC3=NC[C@@]4(CN5CCC4CC5)O3)n[nH]c2c1 [Example 134],< 100
8,COc1ccc2c(NC3=NC[C@@]4(CN5CCC4CC5)O3)n[nH]c2c1 [Example 135],< 100
9,Brc1cnc(NC2=NC[C@@]3(CN4CCC3CC4)O2)cn1 [Example 136],< 100
10,c1cncc(-c2ncc(NC3=NC[C@@]4(CN5CCC4CC5)O3)cn2)c1 [Example 138],1000 to 100000
11,c1ccc2nc(NC3=NC[C@@]4(CN5CCC4CC5)O3)ccc2c1 [Example 139],< 100
12,Fc1ccc2nc(NC3=NC[C@@]4(CN5CCC4CC5)O3)ccc2c1 [Example 140],100 to 1000
13,c1csc(-c2cc(NC3=NC[C@@]4(CN5CCC4CC5)O3)n[nH]2)c1 [Example 143],100 to 1000
14,Cc1cc(C)c2c(NC3=NC[C@@]4(CN5CCC4CC5)O3)nsc2n1 [Example 145],1000 to 100000
15,c1ccc2c(NC3=NC[C@@]4(CN5CCC4CC5)O3)nccc2c1 [Example 146],100 to 1000
16,c1ccc2c(NC3=NC[C@@]4(CN5CCC4CC5)O3)ncnc2c1 [Example 147],100 to 1000
17,N#Cc1cnc(NC2=NC[C@@]3(CN4CCC3CC4)O2)cn1 [Example 148],1000 to 100000
18,COc1cc(NC2=NC[C@@]3(CN4CCC3CC4)O2)nc(OC)n1 [Example 150],100 to 1000
19,COc1ccc(-c2cnc(NC3=NC[C@@]4(CN5CCC4CC5)O3)nc2)cc1 [Example 151],100 to 1000
20,c1ccc2c(c1)CCc1cnc(NC3=NC[C@@]4(CN5CCC4CC5)O3)nc1-2 [Example 153],100 to 1000
21,Brc1cc(NC2=NC[C@@]3(CN4CCC3CC4)O2)ccn1 [Example 154],1000 to 100000
22,Brc1cccc(NC2=NC[C@@]3(CN4CCC3CC4)O2)n1 [Example 155],100 to 1000

row,Structure (SMILES),EC50 [nM]
1,Cc1ccc2nc(NC3=NC[C@@]4(CN5CCC4CC5)O3)ccc2c1 [Example 157],100 to 1000
2,Fc1cccc2[nH]nc(NC3=NC[C@@]4(CN5CCC4CC5)O3)c12 [Example 158],100 to 1000
3,Fc1ccc2[nH]nc(NC3=NC[C@@]4(CN5CCC4CC5)O3)c2c1 [Example 159],< 100
4,c1cc(NC2=NC[C@@]3(CN4CCC3CC4)O2)cnn1 [Example 160],1000 to 100000
5,Cc1oc2ncnc(NC3=NC[C@@]4(CN5CCC4CC5)O3)c2c1C [Example 161],1000 to 100000
6,COc1ccc(-c2cc(NC3=NC[C@@]4(CN5CCC4CC5)O3)n[nH]2)cc1 [Example 162],1000 to 100000
7,FC(F)(F)c1ccc2[nH]nc(NC3=NC[C@@]4(CN5CCC4CC5)O3)c2c1 [Example 163],< 100
8,FC(F)(F)c1ccc2c(NC3=NC[C@@]4(CN5CCC4CC5)O3)n[nH]c2c1 [Example 164],100 to 1000
9,c1ccc2c(NC3=NC[C@@]4(CN5CCC4CC5)O3)n[nH]c2c1 [Example 165],< 100
10,COc1ccc(-c2ccnc(NC3=NC[C@@]4(CN5CCC4CC5)O3)n2)cc1 [Example 166],< 100
11,Cc1sc2ncnc(NC3=NC[C@@]4(CN5CCC4CC5)O3)c2c1C [Example 167],1000 to 100000
12,Brc1ccc2nc(NC3=NC[C@@]4(CN5CCC4CC5)O3)ncc2c1 [Example 168],< 100
13,Cc1nc(NC2=NC[C@@]3(CN4CCC3CC4)O2)nc(C)c1Br [Example 171],< 100
14,COc1cc(C)nc(NC2=NC[C@@]3(CN4CCC3CC4)O2)n1 [Example 172],100 to 1000
15,COc1cccc(-c2csc(NC3=NC[C@@]4(CN5CCC4CC5)O3)n2)c1 [Example 173],100 to 1000
16,Cc1cc(Cl)cc2sc(NC3=NC[C@@]4(CN5CCC4CC5)O3)nc12 [Example 174],100 to 1000
17,Cc1cc(C)nc(NC2=NC[C@@]3(CN4CCC3CC4)O2)n1 [Example 176],100 to 1000
18,c1ccc2c(c1)CCc1cnc(NC3=NC[C@@]4(CN5CCC4CC5)O3)nc1-2 [Example 177],< 100
19,COc1nc(NC2=NC[C@@]3(CN4CCC3CC4)O2)ncc1Br [Example 178],< 100
20,COc1ccc2nc(NC3=NC[C@@]4(CN5CCC4CC5)O3)c(C)cc2c1 [Example 179],100 to 1000
21,Cc1cc(-c2ccccc2)nc(NC2=NC[C@@]3(CN4CCC3CC4)O2)n1 [Example 180],100 to 1000
